Columns and labels:
alpha-1B adrenoceptor = biological target: T1, alpha-1B adrenoceptor (Homo sapiens, UniProt P35368); assay: [3H]prazosin binding (alpha1-adrenoceptor) assay, alpha-1B; conditions: membranes of transfected CHO-KI cells, read-out: affinity towards the alpha-1B adrenoceptor (pKi) (converted)
T1 construct: expressed in transfected cells; host or cells: CHO-K1
T1 sequence (P35368 1-520): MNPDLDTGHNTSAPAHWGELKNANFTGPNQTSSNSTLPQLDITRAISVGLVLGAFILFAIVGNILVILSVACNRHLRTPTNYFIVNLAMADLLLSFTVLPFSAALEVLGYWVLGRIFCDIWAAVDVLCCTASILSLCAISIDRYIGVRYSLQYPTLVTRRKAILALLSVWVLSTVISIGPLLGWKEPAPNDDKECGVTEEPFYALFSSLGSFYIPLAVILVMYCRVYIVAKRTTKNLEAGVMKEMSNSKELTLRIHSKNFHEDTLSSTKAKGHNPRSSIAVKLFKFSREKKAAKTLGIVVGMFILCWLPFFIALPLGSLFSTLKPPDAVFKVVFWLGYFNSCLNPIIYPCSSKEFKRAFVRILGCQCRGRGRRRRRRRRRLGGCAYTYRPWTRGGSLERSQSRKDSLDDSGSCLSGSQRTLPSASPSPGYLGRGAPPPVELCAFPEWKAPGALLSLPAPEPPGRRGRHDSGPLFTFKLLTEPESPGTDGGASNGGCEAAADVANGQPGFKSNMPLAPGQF
Protocol: (§1) Alpha1A, alpha1B, and alpha1D adrenoceptor transfected CHO-KI cells, prepared using the methods described by Chang et al., FEBS Lett. 1998, 422:279-283, were grown to confluence in T-162 tissue culture flasks in Ham's F-12 culture medium supplemented with 10% fetal bovine serum, geneticin (150 µg/mL) and streptomycin/penicillin (30 µg/mL/30 µg/mL) at 37 °C in 7% CO2. Cells were harvested by incubating with phosphate-buffered saline (PBS) containing 30 µM EDTA for 5-10 min at 37 °C. Cells were pelleted by centrifuging at 500 x g for 5 min, and the pelleted cells were homogenized (Polytron homogenizer) in 10 vols (w/v) of 50 mM Tris, 1 mM EDTA, (homogenisation buffer, pH 7.4 at 4 °C). The homogenate was centrifuged at 45,000 x g for 20 min. The pellet was resuspended in the homogenizing buffer and rehomogenized. The resulting homogenate was centrifuged at 45,000 x g for 20 min. The pellet was resuspended in 50 mM Tris buffer (pH 7.4 at 4 °C), aliquoted, frozen, and stored at -80 °C for further use.
(§2) The membranes were thawed at room temperature and diluted in assay buffer (50 mM Tris buffer at […]) at 37 °C and homogenized using the Polytron tissue disrupter. The membranes were incubated with the radioligand ([^3H]prazosin, NEN, 0.1 - 0.5 nM) and test compound at 37 °C for 30 min. The membranes were then filtered over polyethyleneimine-treated GF/B unifilter plates using a Packard Filtermate Harvester and washed with ice-cold 50 mM Tris-HCl, 1 mM EDTA buffer (3 x 3 sec. washes). Scintillation cocktail was added to the filter plates and bound radioligand determined by liquid scintillation spectrophotometry.
(§3) For each experiment, total binding (in the absence of any test or reference compounds) and non-specific binding (10 µM phentolamine) were determined. For each sample tested, the concentration producing 50% inhibition of binding (IC50) and Hill Slope (nH) was determined using iterative non-linear curve fitting techniques with Kaleidagraph (Synergy Software) or other appropriate software. If the radioligand KD was known, the inhibition dissociation constant (K1) of each ligand was determined according to the method of Cheng and Prusoff (Cheng, Y-C. and Prusoff, W.H., Biochem. Pharmacol., 1973, 22, 3099-3108).

alpha-1D adrenoceptor = biological target: T2, alpha-1D adrenoceptor (Homo sapiens, UniProt P25100); assay: [3H]prazosin binding (alpha1-adrenoceptor) assay, alpha-1D; conditions: membranes of transfected CHO-KI cells, read-out: affinity towards the alpha-1D adrenoceptor (pKi) (converted)
T2 construct: expressed in transfected cells; host or cells: CHO-K1
T2 sequence (P25100 1-572): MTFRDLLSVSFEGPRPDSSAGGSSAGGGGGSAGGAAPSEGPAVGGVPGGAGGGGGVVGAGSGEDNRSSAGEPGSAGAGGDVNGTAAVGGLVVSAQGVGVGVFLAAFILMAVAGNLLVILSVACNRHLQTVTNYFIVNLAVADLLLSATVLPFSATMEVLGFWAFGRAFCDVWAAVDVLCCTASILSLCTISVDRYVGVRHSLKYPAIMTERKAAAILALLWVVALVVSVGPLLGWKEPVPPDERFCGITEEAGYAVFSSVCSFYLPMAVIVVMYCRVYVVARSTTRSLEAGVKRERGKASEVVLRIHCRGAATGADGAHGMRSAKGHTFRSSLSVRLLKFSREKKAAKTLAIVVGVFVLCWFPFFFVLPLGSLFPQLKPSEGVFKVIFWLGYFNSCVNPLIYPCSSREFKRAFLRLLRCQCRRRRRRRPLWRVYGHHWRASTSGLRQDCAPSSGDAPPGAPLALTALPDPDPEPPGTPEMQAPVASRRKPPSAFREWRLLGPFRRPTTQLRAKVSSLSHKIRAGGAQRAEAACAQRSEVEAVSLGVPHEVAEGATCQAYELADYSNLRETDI
Protocol: as §1, §2, §3

alpha-1A adrenoceptor = biological target: T3, alpha-1A adrenoceptor (Homo sapiens, UniProt P35348); assay: [3H]prazosin binding (alpha1-adrenoceptor) assay, alpha-1A; conditions: membranes of transfected CHO-KI cells, read-out: affinity towards the alpha-1A adrenoceptor (pKi) (converted)
T3 construct: expressed in transfected cells; host or cells: CHO-K1
T3 sequence (P35348 1-466): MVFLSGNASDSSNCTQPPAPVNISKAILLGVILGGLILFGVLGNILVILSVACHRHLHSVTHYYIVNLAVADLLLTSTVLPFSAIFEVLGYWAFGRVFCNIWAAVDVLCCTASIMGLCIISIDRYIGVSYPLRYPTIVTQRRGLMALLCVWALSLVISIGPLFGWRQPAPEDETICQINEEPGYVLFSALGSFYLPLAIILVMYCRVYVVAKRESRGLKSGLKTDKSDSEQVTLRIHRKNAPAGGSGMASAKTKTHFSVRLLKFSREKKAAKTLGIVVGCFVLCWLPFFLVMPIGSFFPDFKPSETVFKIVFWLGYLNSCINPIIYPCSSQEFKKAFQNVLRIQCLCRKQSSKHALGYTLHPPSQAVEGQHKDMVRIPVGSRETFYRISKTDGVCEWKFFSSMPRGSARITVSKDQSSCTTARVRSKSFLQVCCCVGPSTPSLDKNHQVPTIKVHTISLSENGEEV
Protocol: as §1, §2, §3

Ki (alpha-1B adrenoceptor) [nM] | Ki (alpha-1D adrenoceptor) [nM] | Ki (alpha-1A adrenoceptor) [nM] | SMILES
7.08 | 66.1 | 1.62 | COc1cc2c(cc1OC)CN(C1=Nc3cc(OC)c(OC)cc3S(=O)(=O)N1)CC2 [Compound 101, 3-(6,7-dimethoxy-3,4-dihydro-1H-isoquinolin-2-yl)-6,7-dimethoxy-2H-benzo[1,2,4]thiadiazine-1,1-dioxide]
31.6 | 339 | 15.8 | COc1cc2c(cc1OC)S(=O)(=O)NC(N1CCc3c(ncnc3N3CCOCC3)C1)=N2 [Compound 102, 6,7-dimethoxy-3-(4-morpholin-4-yl-5,8-dihydro-6H-pyrido[3,4d]pyrimidin-7-yl)-2H-benzo[1,2,4]thiadiazine-1,1-dioxide]
0.759 | 47.9 | 0.955 | COc1cc2c(cc1OC)CN(c1nc(=O)c3cc(OC)c(OC)cc3[nH]1)CC2 [Compound 105, 2-(6,7-dimethoxy-3,4-dihydro-1H-isoquinolin-2-yl)-6,7-dimethoxy-1H-quinazolin-4-one]
0.741 | 10000 | 3.8 | COc1ccc(-c2cccc3c2CCN(c2nc4cc(OC)c(OC)cc4c(=O)[nH]2)C3)cc1 [Compound 106, 6,7-dimethoxy-2-[5-(4-methoxy-phenyl)-3,4-dihydro-1H-isoquinolin-2-yl]-3H-quinazolin-4-one]
2.04 | 132 | 1.17 | COc1cc2nc(N3CCc4c(cccc4-c4cccnc4)C3)[nH]c(=O)c2cc1OC [Compound 112, 6,7-dimethoxy-2-(5-pyridin-3-yl-3,4-dihydro-1H-isoquinolin-2-yl)-3H-quinazolin-4-one]
0.912 | 33.9 | 2.04 | COc1cc2nc(N3CCc4ccc(N5CCCC5)cc4C3)[nH]c(=O)c2cc1OC [Compound 113, 6,7-dimethoxy-2-(7-pyrrolidin-1-yl-3,4-dihydro-1H-isoquinolin-2-yl)-3H-quinazolin-4-one]
1.51 | 17 | 0.759 | COc1cc2nc(N3CCc4c(cc(OC)c(OC)c4C#N)C3)[nH]c(=O)c2cc1OC [Compound 118, 2-(6,7-dimethoxy-4-oxo-3,4-dihydro-quinazolin-2-yl)-6,7-dimethoxy-1,2,3,4-tetrahydro-isoquinoline-5-carbonitrile]
39.8 | 955 | 89.1 | COc1cc2[nH]c(N3CCc4c(cccc4N4CCOCC4)C3)nc(=O)c2cc1OC [Compound 131, 6,7-dimethoxy-2-(5-morpholin-4-yl-3,4-dihydro-1H-isoquinolin-2-yl)-1H-quinazolin-4-one]
955 | 38900 | 219 | COc1cc2[nH]c(N3CCc4cc(O)c(O)cc4C3C)nc(=O)c2cc1OC (stereo not drawn) [Compound 142, 2-(6,7-dihydroxy-1-methyl-3,4-dihydro-1H-isoquinolin-2-yl)-6,7-dimethoxy-1H-quinazolin-4-one]
1.1 | 20.9 | 0.479 | COc1cc2nc(N3CCc4c([nH]c5ccccc45)C3)[nH]c(=O)c2cc1OC [Compound 143, 6,7-dimethoxy-2-(1,3,4,9-tetrahydro-β-carbolin-2-yl)-3H-quinazolin-4-one]
5.25 | 91.2 | 3.47 | COc1cc2nc(N3CCc4nc5ccncc5cc4C3)[nH]c(=O)c2cc1OC [Compound 146, 2-(3,4-dihydro-1H-2,7,10-triaza-anthracen-2-yl)-6,7-dimethoxy-3H-quinazolin-4-one]
41.7 | 468 | 5.5 | COc1cc2[nH]c(N3CCc4ccncc4C3)nc(=O)c2cc1OC [Compound 147, 2-(3,4-dihydro-1H-[2,7]naphthyridin-2-yl)-6,7-dimethoxy-1H-quinazolin-4-one]
8.71 | 575 | 4.47 | COc1cc2nc(N3CCc4c(ncnc4N4CCN(C)CC4)C3)[nH]c(=O)c2cc1OC [Compound 203, 6,7-dimethoxy-2-[4-(4-methyl-piperazin-1-yl)-5,8-dihydro-6H-pyrido[3,4-d]pyrimidin-7-yl]-3H-quinazolin-4-one]
5.01 | 407 | 6.17 | COCCN(C)c1ncnc2c1CCN(c1nc3cc(OC)c(OC)cc3c(=O)[nH]1)C2 [Compound 205]
13.2 | 182 | 3.8 | COc1cc2nc(N3CCc4c(ncnc4Nc4cccc(C)n4)C3)[nH]c(=O)c2cc1OC [Compound 208, 6,7-dimethoxy-2-[4-(6-methyl-pyridin-2-ylamino)-5,8-dihydro-6H-pyrido[3,4-d]pyrimidin-7-yl]-3H-quinazolin-4-one]
0.832 | 6.17 | 0.912 | COc1cc2[nH]c(N3CCn4c(cnc4-c4ccccc4)C3)nc(=O)c2cc1OC [Compound 302, 6,7-dimethoxy-2-(3-phenyl-5,6-dihydro-8H-imidazo[1,5-a]pyrazin-7-yl)-1H-quinazolin-4-one]
3.09 | 19.5 | 1.12 | CCCCc1ncc2n1CCN(c1nc(=O)c3cc(OC)c(OC)cc3[nH]1)C2 [Compound 306, 2-(3-butyl-5,6-dihydro-8H-imidazo[1,5-α]pyrazin-7-yl)-6,7-dimethoxy-1H-quinazolin-4-one]
17.4 | 123 | 7.76 | COc1cc2[nH]c(N3CCn4c(cnc4N4CCOCC4)C3)nc(=O)c2cc1OC [Compound 307, 6,7-dimethoxy-2-(3-morpholin-4-yl-5,6-dihydro-8H-imidazo[1,5-α]pyrazin-7-yl)-1H-quinazolin-4-one]
52.5 | 1170 | 15.1 | COc1cc2nc(N3CCc4c(cccc4S(=O)(=O)N4CCN(C)CC4)C3)[nH]c(=O)c2cc1OC [Compound 401, 6,7-dimethoxy-2-[5-(4-methyl-piperazine-1-sulfonyl)-3,4-dihydro-1H-isoquinolin-2-yl]-3H-quinazolin-4-one]

Source: EP1363899B1, “QUINAZOLONE DERIVATIVES AS ALPHA 1A/B ADRENERGIC RECEPTOR ANTAGONISTS” (F.HOFFMANN-LA ROCHE AG, priority 2001, dated 2002)
